{"source": "patent US5624923A", "about": "“Tricyclic diazepine vasopressin antagonists and oxytocin antagonists” (priority 1995, dated 1997)", "key": {"Vasopressin V1": {"system": "Vasopressin V1", "assay": "Vasopressin V1 Antagonist Activity in Conscious Rats (vasopressin vasopressor response)", "type": "in vivo, rat", "set-up": "Average Change: unit not given here", "conditions": "for % Inhibition / Average Change: SHR", "in_short": "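Conscious rats are restrained supine, and under local 2% procaine a PE 10/20 cannula is passed through the ventral caudal tail artery into the lower abdominal aorta. The caudal vein is cannulated for intravenous dosing. Blood pressure is recorded with a Statham P23Db transducer, and vasopressin injections are repeated after compound dosing. Percent antagonism is calculated against the pre-drug vasopressor response taken as 100%.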"}, "[1]": {"biological_target": "T1, Rat Kidney Medullary V2 Receptors (Rattus norvegicus, UniProt Q00788)", "T1 construct": "Medullary tissues from rat kidneys are dissected out; from tissue; host or cells: rat kidney medulla membranes", "T1 sequence (Q00788 whole entry)": "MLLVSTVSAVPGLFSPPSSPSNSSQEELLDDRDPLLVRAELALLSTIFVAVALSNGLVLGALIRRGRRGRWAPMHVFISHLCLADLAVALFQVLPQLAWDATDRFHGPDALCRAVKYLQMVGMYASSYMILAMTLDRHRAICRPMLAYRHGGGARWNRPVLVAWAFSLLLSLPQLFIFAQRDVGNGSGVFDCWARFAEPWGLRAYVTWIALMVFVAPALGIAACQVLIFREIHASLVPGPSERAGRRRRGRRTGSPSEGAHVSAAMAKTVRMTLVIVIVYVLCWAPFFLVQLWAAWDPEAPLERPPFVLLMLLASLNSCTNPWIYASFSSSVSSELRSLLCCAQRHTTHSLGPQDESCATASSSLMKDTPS", "assay": "Binding Assay to Rat Kidney Medullary V2 Receptors", "conditions": "for IC50: rat kidney medulla membranes, read-out: V2 IC50; for inhibition at 10 µM: rat", "in_short": "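Membranes were prepared from rat kidney medulla and stored in 50.0 mM Tris-HCl pH 7.4 with 0.2% BSA and 0.1 mM PMSF. Radioligand competition ran 120 min at bench temperature, with 1.0 μM unlabeled ligand defining nonspecific binding. Compounds were added in 50% DMSO; filtration, tritium scintillation counting, IC50 from competition analysis.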"}, "[2]": {"conditions": "10 mg/kg i.v., VAS 0.01 i.u./kg, 30 min"}, "[3]": {"conditions": "10 mg/kg i.v., VAS 0.01 i.u./kg, 60 min"}, "[4]": {"conditions": "10 mg/kg i.v., VAS 0.01 i.u./kg, 90 min"}, "[5]": {"conditions": "10 mg/kg i.v., VAS 0.01 i.u./kg, 120 min"}, "[6]": {"conditions": "10 mg/kg i.v., VAS 0.01 i.u./kg, 180 min"}, "[7]": {"conditions": "10 mg/kg i.v., VAS 0.01 i.u./kg, 240 min"}, "[8]": {"conditions": "10 mg/kg i.v., VAS 0.01 i.u./kg, 300 min"}, "[9]": {"conditions": "10 mg/kg i.v., VAS 0.02 i.u./kg, 30 min"}, "[10]": {"conditions": "10 mg/kg i.v., VAS 0.02 i.u./kg, 60 min"}, "[11]": {"conditions": "10 mg/kg i.v., VAS 0.02 i.u./kg, 90 min"}, "[12]": {"conditions": "10 mg/kg i.v., VAS 0.02 i.u./kg, 120 min"}, "[13]": {"conditions": "10 mg/kg i.v., VAS 0.02 i.u./kg, 180 min"}, "[14]": {"conditions": "10 mg/kg i.v., VAS 0.02 i.u./kg, 240 min"}, "[15]": {"conditions": "10 mg/kg i.v., VAS 0.02 i.u./kg, 300 min"}}}
{"molecule": "O=C(Nc1ccc(C(=O)N2Cc3cccn3Cc3ccccc32)cc1)c1ccc(Cl)cc1Cl", "note": "[Example 6, N-[4-(5H-pyrrolo[2,1-c][1,4]benzodiazepin-10(11H)-ylcarbonyl)phenyl]-2,4-dichlorobenzamide]", "values": [{"measurement": "% Inhibition", "setting": "Vasopressin V1; [2]", "value": 85, "unit": "%"}, {"measurement": "Average Change", "setting": "Vasopressin V1; [2]", "value": 5.5}, {"measurement": "% Inhibition", "setting": "Vasopressin V1; [3]", "value": 79, "unit": "%"}, {"measurement": "Average Change", "setting": "Vasopressin V1; [3]", "value": 7.5}, {"measurement": "% Inhibition", "setting": "Vasopressin V1; [4]", "value": 63, "unit": "%"}, {"measurement": "Average Change", "setting": "Vasopressin V1; [4]", "value": 13.5}, {"measurement": "% Inhibition", "setting": "Vasopressin V1; [5]", "value": 59, "unit": "%"}, {"measurement": "Average Change", "setting": "Vasopressin V1; [5]", "value": 15}, {"measurement": "% Inhibition", "setting": "Vasopressin V1; [6]", "value": 44, "unit": "%"}, {"measurement": "Average Change", "setting": "Vasopressin V1; [6]", "value": 20.5}, {"measurement": "% Inhibition", "setting": "Vasopressin V1; [7]", "value": 34, "unit": "%"}, {"measurement": "Average Change", "setting": "Vasopressin V1; [7]", "value": 24}, {"measurement": "% Inhibition", "setting": "Vasopressin V1; [8]", "value": 30, "unit": "%"}, {"measurement": "Average Change", "setting": "Vasopressin V1; [8]", "value": 25.5}, {"measurement": "% Inhibition", "setting": "Vasopressin V1; [9]", "value": 62, "unit": "%"}, {"measurement": "Average Change", "setting": "Vasopressin V1; [9]", "value": 16}, {"measurement": "% Inhibition", "setting": "Vasopressin V1; [10]", "value": 45, "unit": "%"}, {"measurement": "Average Change", "setting": "Vasopressin V1; [10]", "value": 23}, {"measurement": "% Inhibition", "setting": "Vasopressin V1; [11]", "value": 36, "unit": "%"}, {"measurement": "Average Change", "setting": "Vasopressin V1; [11]", "value": 27}, {"measurement": "% Inhibition", "setting": "Vasopressin V1; [12]", "value": 30, "unit": "%"}, {"measurement": "Average Change", "setting": "Vasopressin V1; [12]", "value": 29.5}, {"measurement": "% Inhibition", "setting": "Vasopressin V1; [13]", "value": 17, "unit": "%"}, {"measurement": "Average Change", "setting": "Vasopressin V1; [13]", "value": 35}, {"measurement": "% Inhibition", "setting": "Vasopressin V1; [14]", "value": 15, "unit": "%"}, {"measurement": "Average Change", "setting": "Vasopressin V1; [14]", "value": 35.5}, {"measurement": "% Inhibition", "setting": "Vasopressin V1; [15]", "value": 14, "unit": "%"}, {"measurement": "Average Change", "setting": "Vasopressin V1; [15]", "value": 36}, {"measurement": "IC50", "setting": "[1]", "value": 3, "unit": "nM"}]}
{"molecule": "COC(=O)c1ccc(C(=O)Nc2ccc(C(=O)N3Cc4cccn4Cc4ccccc43)cc2)cc1", "note": "[Example 489]", "values": [{"measurement": "Max. % Inhibition", "setting": "Vasopressin V1; 30 mg/kg i.v.", "value": 39, "unit": "%"}, {"measurement": "Time (of max. % inhibition)", "setting": "Vasopressin V1; 30 mg/kg i.v.", "value": 120, "unit": "min"}, {"measurement": "inhibition at 10 µM", "setting": "[1]", "value": 82, "unit": "%"}]}
{"molecule": "Cc1ccccc1C(=O)Nc1c(C)cc(C(=O)N2Cc3cccn3Cc3ccccc32)cc1C", "note": "[Example 472]", "values": [{"measurement": "Max. % Inhibition", "setting": "Vasopressin V1; 30 mg/kg i.v.", "value": 36, "unit": "%"}, {"measurement": "Time (of max. % inhibition)", "setting": "Vasopressin V1; 30 mg/kg i.v.", "value": 90, "unit": "min"}, {"measurement": "inhibition at 10 µM", "setting": "[1]", "value": 22, "unit": "%"}]}
{"molecule": "Cc1ccccc1C(=O)Nc1ccc(C(=O)N2Cc3ccc(C(=O)C(F)(F)F)n3Cc3ccccc32)c(Cl)c1", "note": "[Example 595, N-[4-[[3-(Trifluoroacetyl)-5H-pyrrolo[2,1-c][1,4]benzodiazepin-10(11H)-yl]carbonyl]-3-chlorophenyl]-2-methylbenzamide]", "values": [{"measurement": "Max. % Inhibition", "setting": "Vasopressin V1; 30 mg/kg i.v.", "value": 44, "unit": "%"}, {"measurement": "Time (of max. % inhibition)", "setting": "Vasopressin V1; 30 mg/kg i.v.", "value": 90, "unit": "min"}, {"measurement": "inhibition at 10 µM", "setting": "[1]", "value": 93, "unit": "%"}]}
{"molecule": "O=C(Nc1ccc(C(=O)N2Cc3cccn3-c3ccccc32)cc1)c1ccc(Cl)cc1Cl", "note": "[Example 17, N-[4-(pyrrolo(1,2-a]quinoxalin-5(4H)-ylcarbonyl)phenyl]-2,4-dichloro-benzamide]", "values": [{"measurement": "Max. % Inhibition", "setting": "Vasopressin V1; 30 mg/kg i.v.", "value": 50, "unit": "%"}, {"measurement": "Time (of max. % inhibition)", "setting": "Vasopressin V1; 30 mg/kg i.v.", "value": 60, "unit": "min"}, {"measurement": "IC50", "setting": "[1]", "value": 110, "unit": "nM"}]}
{"molecule": "O=C(CN1CCOCC1)Nc1ccc(C(=O)N2Cc3cccn3Cc3ccccc32)cc1", "note": "[Example 590, N-[4-(5H-pyrrolo[2,1-c][1,4]benzodiazepin-10(11H)-ylcarbonyl)phenyl]-4-morpholineacetamide]", "values": [{"measurement": "Max. % Inhibition", "setting": "Vasopressin V1; 30 mg/kg i.v.", "value": 89, "unit": "%"}, {"measurement": "Time (of max. % inhibition)", "setting": "Vasopressin V1; 30 mg/kg i.v.", "value": 120, "unit": "min"}, {"measurement": "inhibition at 10 µM", "setting": "[1]", "value": 81, "unit": "%"}]}
{"molecule": "O=C(Nc1ccc(C(=O)N2Cc3cccn3Cc3ccccc32)cc1)c1sccc1Cl", "note": "[Example 476, N-[4-(5H-pyrrolo[2,1-c][1,4]benzodiazepin-10(11H)-ylcarbonyl)phenyl]-3-chlorothiophene-2-carboxamide]", "values": [{"measurement": "Max. % Inhibition", "setting": "Vasopressin V1; 10 mg/kg i.v.", "value": 78, "unit": "%"}, {"measurement": "Time (of max. % inhibition)", "setting": "Vasopressin V1; 10 mg/kg i.v.", "value": 30, "unit": "min"}, {"measurement": "Max. % Inhibition", "setting": "Vasopressin V1; 30 mg/kg p.o.", "value": 19, "unit": "%"}, {"measurement": "Time (of max. % inhibition)", "setting": "Vasopressin V1; 30 mg/kg p.o.", "value": 180, "unit": "min"}, {"measurement": "IC50", "setting": "[1]", "value": 69, "unit": "nM"}]}
{"molecule": "Cc1ccccc1C(=O)Nc1ccc(C(=O)N2Cc3cccn3Cc3ccccc32)c(Cl)c1", "note": "[Example 470]", "values": [{"measurement": "Max. % Inhibition", "setting": "Vasopressin V1; 10 mg/kg i.v.", "value": 87, "unit": "%"}, {"measurement": "Time (of max. % inhibition)", "setting": "Vasopressin V1; 10 mg/kg i.v.", "value": 180, "unit": "min"}, {"measurement": "Max. % Inhibition", "setting": "Vasopressin V1; 30 mg/kg p.o.", "value": 69, "unit": "%"}, {"measurement": "Time (of max. % inhibition)", "setting": "Vasopressin V1; 30 mg/kg p.o.", "value": 180, "unit": "min"}, {"measurement": "IC50", "setting": "[1]", "value": 4.5, "unit": "nM"}]}
{"molecule": "O=C(Nc1ccc(C(=O)N2Cc3cccn3Cc3ccccc32)cc1)c1cc(Cl)cc(Cl)c1Cl", "note": "[Example 599, N-[4-(5H-Pyrrolo[2,1-c][1,4]benzodiazepin-10(11H)-ylcarbonyl)phenyl]-2,3,5-trichlorobenzamide]", "values": [{"measurement": "Max. % Inhibition", "setting": "Vasopressin V1; 30 mg/kg i.v.", "value": 86, "unit": "%"}, {"measurement": "Time (of max. % inhibition)", "setting": "Vasopressin V1; 30 mg/kg i.v.", "value": 90, "unit": "min"}, {"measurement": "IC50", "setting": "[1]", "value": 14, "unit": "nM"}]}
{"molecule": "O=C(Nc1ccc(C(=O)N2Cc3ccc(C(=O)C(F)(F)F)n3Cc3ccccc32)cc1)c1ccccc1C(F)(F)F", "note": "[Example 594]", "values": [{"measurement": "Max. % Inhibition", "setting": "Vasopressin V1; 30 mg/kg i.v.", "value": 36, "unit": "%"}, {"measurement": "Time (of max. % inhibition)", "setting": "Vasopressin V1; 30 mg/kg i.v.", "value": 180, "unit": "min"}, {"measurement": "inhibition at 10 µM", "setting": "[1]", "value": 23, "unit": "%"}]}
{"molecule": "O=C(Nc1ccc(C(=O)N2Cc3ccc(CO)n3Cc3ccccc32)cc1)c1ccc(Cl)cc1Cl", "note": "[Example 581, 2,4-Dichloro-N-[4-[[3-(hydroxymethyl)-5H-pyrrolo[2,1-c][1,4]benzodiazepin-10(11H)-yl]carbonyl]phenyl]benzamide]", "values": [{"measurement": "Max. % Inhibition", "setting": "Vasopressin V1; 10 mg/kg i.v.", "value": 94, "unit": "%"}, {"measurement": "Time (of max. % inhibition)", "setting": "Vasopressin V1; 10 mg/kg i.v.", "value": 30, "unit": "min"}, {"measurement": "Max. % Inhibition", "setting": "Vasopressin V1; 30 mg/kg p.o.", "value": 79, "unit": "%"}, {"measurement": "Time (of max. % inhibition)", "setting": "Vasopressin V1; 30 mg/kg p.o.", "value": 30, "unit": "min"}, {"measurement": "IC50", "setting": "[1]", "value": 5.3, "unit": "nM"}]}
{"molecule": "Cc1cccc(NC(=O)c2ccc(C(=O)N3Cc4cccn4Cc4ccccc43)cc2)c1C", "note": "[Example 485, N-(2,3-Dimethylphenyl)-4-(5H-pyrrolo[2,1-c][1,4]benzodiazepin-10(11H)-ylcarbonyl)benzamide]", "values": [{"measurement": "Max. % Inhibition", "setting": "Vasopressin V1; 30 mg/kg i.v.", "value": 64, "unit": "%"}, {"measurement": "Time (of max. % inhibition)", "setting": "Vasopressin V1; 30 mg/kg i.v.", "value": 60, "unit": "min"}, {"measurement": "IC50", "setting": "[1]", "value": 13, "unit": "nM"}]}
{"molecule": "Cc1c(F)cccc1C(=O)Nc1ccc(C(=O)N2Cc3ccnn3Cc3ccccc32)cc1", "note": "[Example 517, N-[4-(4H-Pyrazolo[5,1-c][1,4]benzodiazepin-5(10H)-ylcarbonyl)phenyl]-3-fluoro-2-methylbenzamide]", "values": [{"measurement": "Max. % Inhibition", "setting": "Vasopressin V1; 10 mg/kg i.v.", "value": 81, "unit": "%"}, {"measurement": "Time (of max. % inhibition)", "setting": "Vasopressin V1; 10 mg/kg i.v.", "value": 90, "unit": "min"}, {"measurement": "IC50", "setting": "[1]", "value": 15, "unit": "nM"}]}
